The NIST ThermoML archive (doi:10.1007/s10765-005-5567-5)

Assay: mn = molality of the nth substance listed, in mol/kg
Conditions: Liquid; for viscosity: Capillary tube (Ostwald / Ubbelohde) method; for thermal conductivity: Coaxial cylinder method

O=S(=O)([O-])[O-].[K+].[K+] [potassium sulfate] + O
Conditions | thermal conductivity, 10000 kPa [W/m/K] | thermal conductivity, 30000 kPa [W/m/K] | viscosity, 10 kPa [mPa·s] | viscosity, 20 kPa [mPa·s] | viscosity, 30 kPa [mPa·s]
397.25 K, m1 = 0.305 | – | – | – | 0.2531 | 0.2565
398.55 K, m1 = 0.0658 | – | – | 0.2289 | 0.2321 | 0.236
422.05 K, m1 = 0.407 | – | – | 0.2131 | 0.2154 | 0.2189
423 K, m1 = 0.499 | 0.678 | 0.69 | – | – | –
423.3 K, m1 = 0.782 | 0.671 | 0.684 | – | – | –
423.55 K, m1 = 0.305 | – | – | 0.204 | 0.2068 | 0.2096
423.6 K, m1 = 0.239 | 0.683 | 0.696 | – | – | –
423.85 K, m1 = 0.0658 | – | – | 0.1881 | 0.1926 | 0.196
425.45 K, m1 = 0.2055 | – | – | 0.1946 | 0.1974 | 0.2
446.85 K, m1 = 0.407 | – | – | 0.1811 | 0.184 | 0.1867
447.35 K, m1 = 0.0658 | – | – | 0.1613 | 0.1645 | 0.166
448.1 K, m1 = 0.782 | 0.665 | 0.681 | – | – | –
448.35 K, m1 = 0.2055 | – | – | 0.1679 | 0.1705 | 0.1732
448.55 K, m1 = 0.305 | – | – | 0.1735 | 0.1769 | 0.179
448.7 K, m1 = 0.239 | 0.678 | 0.691 | – | – | –
449.8 K, m1 = 0.499 | 0.672 | 0.686 | – | – | –
470.75 K, m1 = 0.407 | – | – | 0.1586 | 0.1605 | 0.1641
472.05 K, m1 = 0.0658 | – | – | 0.1403 | 0.1436 | 0.146
472.9 K, m1 = 0.499 | 0.659 | 0.676 | – | – | –
473.4 K, m1 = 0.239 | 0.665 | 0.681 | – | – | –
473.8 K, m1 = 0.782 | 0.652 | 0.671 | – | – | –
475.85 K, m1 = 0.305 | – | – | 0.1492 | 0.1521 | 0.1545
477.45 K, m1 = 0.2055 | – | – | 0.143 | 0.1456 | 0.1482
496.35 K, m1 = 0.0658 | – | – | 0.1244 | 0.1276 | 0.13
497.45 K, m1 = 0.2055 | – | – | 0.1294 | 0.1322 | 0.1348
498.3 K, m1 = 0.499 | 0.639 | 0.657 | – | – | –
498.5 K, m1 = 0.239 | 0.644 | 0.664 | – | – | –
498.55 K, m1 = 0.407 | – | – | 0.1388 | 0.1409 | 0.1444
498.6 K, m1 = 0.782 | 0.632 | 0.65 | – | – | –
499.95 K, m1 = 0.305 | – | – | 0.1332 | 0.1369 | 0.14
523.05 K, m1 = 0.2055 | – | – | 0.1162 | 0.1191 | 0.1219
523.2 K, m1 = 0.499 | 0.61 | 0.63 | – | – | –
523.3 K, m1 = 0.239 | 0.617 | 0.637 | – | – | –
523.85 K, m1 = 0.407 | – | – | 0.1248 | 0.1286 | 0.1307
523.9 K, m1 = 0.782 | 0.602 | 0.623 | – | – | –
524.45 K, m1 = 0.0658 | – | – | 0.1097 | 0.1135 | 0.116
527.35 K, m1 = 0.305 | – | – | 0.1185 | 0.1216 | 0.1243
541.55 K, m1 = 0.407 | – | – | 0.1171 | 0.12 | 0.1236
545.05 K, m1 = 0.0658 | – | – | 0.1008 | 0.1045 | 0.1072
547.9 K, m1 = 0.239 | 0.584 | 0.61 | – | – | –
548.2 K, m1 = 0.499 | 0.577 | 0.604 | – | – | –
548.45 K, m1 = 0.305 | – | – | 0.1087 | 0.1119 | 0.115
548.5 K, m1 = 0.782 | 0.57 | 0.598 | – | – | –
550.55 K, m1 = 0.2055 | – | – | 0.1039 | 0.1072 | 0.1105
571.55 K, m1 = 0.0658 | – | – | 0.0902 | 0.094 | 0.0972
573.2 K, m1 = 0.499 | 0.534 | 0.568 | – | – | –
573.2 K, m1 = 0.782 | 0.525 | 0.56 | – | – | –
573.35 K, m1 = 0.305 | – | – | 0.0976 | 0.1016 | 0.1035
573.8 K, m1 = 0.239 | 0.54 | 0.574 | – | – | –
574.35 K, m1 = 0.2055 | – | – | 0.094 | 0.0973 | 0.1014
575.25 K, m1 = 0.407 | – | – | 0.1021 | 0.1067 | 0.1102
